The molecules below were run on E. coli ATCC25922 (assay: Antibacterial activity in combination with minocycline (growth inhibition)). Conditions: Escherichia coli, ATCC25922, compound at 25 μM; minocycline 0.25 μg/mL; OD625 23 h minus 1 h; read-out: residual growth of E. coli ATCC25922 (% of uninhibited control) with minocycline.
Type: cell-based
Description: Antibacterial activity in combination with minocycline or with linezolid
Inhibition of growth was measured with E. coli ATCC25922 and P. aeruginosa PAO1 in a 96-well plate format. Cation-adjusted Müller-Hinton broth (caMHB) was inoculated with an overnight culture and incubated at 37° C. on a shaker until OD625 reached 0.6 to 0.7. Density was adjusted to OD600=0.5 by addition of caMHB. 35 μL of the suspension were diluted to 35 mL with caMHB and supplemented with minocycline at the subinhibitory doses of 0.25 μg/mL for E. coli and 8 μg/mL for P. aeruginosa or with linezolid at the subinhibitory dose of 128 μg/mL for E. coli and P. aeruginosa. Each well contained 1 μL of test compound in 100 μL caMHB with minocycline or with linezolid.
Plates were incubated at 37° C. on a plate shaker. OD625 was measured at 1 h, 6 h, and at 23 h.
The difference between OD at 23 h and at 1 h was taken as measure for cell density and compared to controls without inhibitor (i.e. uninhibited control). Results were expressed as residual growth (% of uninhibited control). Enhancement of minocycline or linezolid activity caused reduced residual growth.

| SMILES | activity at 25 µM |
| --- | --- |
| Clc1ccc(COc2ccccc2CCNCC2CNC2)c(Br)c1 [Example 125] | ≤ 10% |
| Clc1ccc(OCc2ccc(Br)c(OCCCNCC3CNC3)c2)c(Br)c1 [Example 126] | ≤ 10% |
| O=Cc1cc(CNCC2CNC2)cc(OCc2ccc(Cl)cc2Br)c1 [Example 127] | ≤ 10% |
| OCc1cc(CNCC2CNC2)cc(OCc2ccc(Cl)cc2Br)c1 [Example 128] | ≤ 10% |
| CCOC(=O)/C=C/c1cc(CNCC2CNC2)cc(OCc2ccc(Cl)cc2Br)c1 [Example 129, Ethyl (E)-3-[3-[(azetidin-3-ylmethylamino)methyl]-5-[(2-bromo-4-chloro-phenyl)methoxy]phenyl]prop-2-enoate] | ≤ 10% |
| Clc1ccc(COc2cc(/C=C/c3ccco3)cc(CNCC3CNC3)c2)c(Br)c1 [Example 130, N-(azetidin-3-ylmethyl)-1-[3-[(2-bromo-4-chloro-phenyl)methoxy]-5-[(E)-2-(2-furyl)vinyl]phenyl]methanamine] | ≤ 10% |
| FC(F)(F)c1cc(Cl)ccc1COc1cccc(CNCC2CCNC2)c1 (centres unmarked) [Example 132] | ≤ 10% |
| Clc1ccc(CSc2ccc(CNCC3CNC3)cc2)c(Br)c1 [Example 133] | ≤ 10% |
| Clc1ccc(CSc2ccc(CNCC3CCNC3)cc2)c(Br)c1 (centres unmarked) [Example 134] | ≤ 10% |
| Clc1ccc(CSc2cccc(CNCC3CCNC3)c2)c(Br)c1 (centres unmarked) [Example 136, 1-[3-[(2-bromo-4-chloro-phenyl)methylsulfanyl]phenyl]-N-(pyrrolidin-3-ylmethyl)methanamine] | ≤ 10% |
| Clc1ccc(/C=C/c2ccc(CNCC3CNC3)cc2)c(Br)c1 [Example 142] | ≤ 10% |
| Clc1ccc(/C=C/c2ccc(CNCC3CCNC3)cc2)c(Br)c1 (centres unmarked) [Example 147] | ≤ 10% |
| O=[N+]([O-])c1ccc(CNCC2CCNC2)cc1OCc1ccc(Cl)cc1Br (centres unmarked) [Example 148] | ≤ 10% |
| Clc1ccc(C#Cc2cccc(CNCC3CNC3)c2)c(Br)c1 [Example 149, N-(azetidin-3-ylmethyl)-1-[3-[2-(2-bromo-4-chlorophenyl)ethynyl]phenyl]methanamine] | ≤ 10% |
| Clc1ccc(C#Cc2cccc(CNCC3CCNC3)c2)c(Br)c1 (centres unmarked) [Example 150] | ≤ 10% |
| Clc1cc(/C=C/c2ccc(Cl)cc2Br)cc(CNCC2CCNC2)c1 (centres unmarked) [Example 157] | ≤ 10% |
| Clc1ccc(CNc2cccc(CNCC3CNC3)c2)c(Br)c1 [Example 158, 3-[(azetidin-3-ylmethylamino)methyl]-N-[(2-bromo-4-chloro-phenyl)methyl]aniline] | ≤ 10% |
| Clc1cc(/C=C/c2ccc(Cl)cc2Br)cc(CNCC2CNC2)c1 [Example 159] | ≤ 10% |
| CC(C)Oc1cc(CNCC2CCNC2)cc(OCc2ccc(Cl)cc2Br)c1 (centres unmarked) [Example 163] | ≤ 10% |
| Clc1ccc(/C=C/c2cccc(CCNCC3CCNC3)c2)c(Br)c1 (centres unmarked) [Example 164] | ≤ 10% |
| Clc1ccc(/C=C/c2cccc(CCNCC3CNC3)c2)c(Br)c1 [Example 165, N-(azetidin-3-ylmethyl)-2-[3-[(E)-2-(2-bromo-4-chloro-phenyl)vinyl]phenyl]ethanamine] | ≤ 10% |
| Clc1ccc(C=CCc2cccc(CNCC3CCNC3)c2)c(Br)c1 (centres unmarked) [Example 169] | ≤ 10% |
| N[C@@H]1CN[C@@H](CNCc2cccc(/C=C/c3ccc(Cl)cc3Br)c2)C1 [Example 171] | ≤ 10% |
| N[C@@H]1CN[C@@H](CNCc2cccc(OCc3ccc(Cl)cc3Br)c2)C1 [Example 172] | ≤ 10% |
| Clc1ccc(COCc2cccc(CNCC3CCNC3)c2)c(Br)c1 (centres unmarked) [Example 174] | ≤ 10% |

| SMILES | activity at 25 µM |
| --- | --- |
| N[C@@H]1CN[C@@H](CNCc2cc(Cl)cc(OCc3ccc(Cl)cc3Br)c2)C1 [Example 175] | ≤ 10% |
| Clc1ccc(COc2cccc(CNCC3CCNC3)c2)c(Cl)c1 (centres unmarked) [Example 176] | ≤ 10% |
| C=CCOc1cc(/C=C/c2ccc(Cl)cc2Br)cc(CNCC2CCNC2)c1 (centres unmarked) [Example 178] | ≤ 10% |
| C=CCOc1cc(/C=C/c2ccc(Cl)cc2Br)cc(CNCC2CNC2)c1 [Example 180] | ≤ 10% |
| Clc1ccc(/C=C/c2cc(CNCC3CCNC3)cc(OCc3ccccc3)c2)c(Br)c1 (centres unmarked) [Example 181] | ≤ 10% |
| CC(C)COc1cc(/C=C/c2ccc(Cl)cc2Br)cc(CNCC2CCNC2)c1 (centres unmarked) [Example 182] | ≤ 10% |
| C=CCOc1cc(CNCC2CNC2)cc(CSc2ccc(Cl)cc2C(F)(F)F)c1 [Example 183] | ≤ 10% |
| C=CCOc1cc(CNCC2CCNC2)cc(CSc2ccc(Cl)cc2C(F)(F)F)c1 (centres unmarked) [Example 184] | ≤ 10% |
| Clc1ccc(/C=C/c2ccc(Cl)cc2OCCCNCC2CCNC2)c(Br)c1 (centres unmarked) [Example 185] | ≤ 10% |
| Clc1ccc(/C=C/c2cc(Cl)ccc2OCCCNCC2CCNC2)c(Br)c1 (centres unmarked) [Example 186] | ≤ 10% |
| Clc1ccc(/C=C/c2ccc(Cl)cc2OCCCNCC2CNC2)c(Br)c1 [Example 187] | ≤ 10% |
| Clc1cc(/C=C/c2ccc(Cl)cc2Br)cc(OCCCNCC2CNC2)c1 [Example 188] | ≤ 10% |
| Clc1cc(/C=C/c2ccc(Cl)cc2Br)cc(OCCCNCC2CCNC2)c1 (centres unmarked) [Example 189] | ≤ 10% |
| CC(C)COc1cc(/C=C/c2ccc(Cl)cc2Br)cc(CNCC2CNC2)c1 [Example 190] | ≤ 10% |
| NCC1CCC(CNCc2cccc(/C=C/c3ccc(Cl)cc3Br)c2)N1 (centres unmarked) [Example 191] | ≤ 10% |
| NCC1CCC(CNCc2cc(Cl)cc(OCc3ccc(Cl)cc3Br)c2)N1 (centres unmarked) [Example 193] | ≤ 10% |
| C=CCOc1cc(CNCC2CCNC2)cc(CSc2ccc(Cl)cc2Br)c1 (centres unmarked) [Example 194] | ≤ 10% |
| C=CCOc1cc(CNCC2CNC2)cc(CSc2ccc(Cl)cc2Br)c1 [Example 196] | ≤ 10% |
| COC(=O)c1ccc(COc2cc(CNCC3CCNC3)cc(OCc3ccc(Cl)cc3Br)c2)cc1 (centres unmarked) [Example 197] | ≤ 10% |
| Clc1ccc(/C=C/c2cc(CNCC3CNC3)cc(OCc3ccccc3)c2)c(Br)c1 [Example 198] | ≤ 10% |
| Clc1ccc(/C=C/c2cc(Cl)ccc2OCCCNCC2CNC2)c(Br)c1 [Example 199] | ≤ 10% |
| Clc1ccc(/C=C/c2ccccc2OCCCNCC2CNC2)c(Br)c1 [Example 200] | ≤ 10% |
| Clc1ccc(/C=C/c2cccc(OCCCNCC3CNC3)c2)c(Br)c1 [Example 201, N-(azetidin-3-ylmethyl)-3-[3-[(E)-2-(2-bromo-4-chloro-phenyl)vinyl]phenoxy]propan-1-amine] | ≤ 10% |
| Clc1ccc(/C=C/c2cccc(OCCCNCC3CCNC3)c2)c(Br)c1 (centres unmarked) [Example 202] | ≤ 10% |
| Clc1ccc(/C=C/c2ccccc2OCCCNCC2CCNC2)c(Br)c1 (centres unmarked) [Example 203] | ≤ 10% |

Same assay, conditions: Escherichia coli, ATCC25922, compound at 50 μM; minocycline 0.25 μg/mL; OD625 23 h minus 1 h; read-out: residual growth of E. coli ATCC25922 (% of uninhibited control) with minocycline

| SMILES | activity at 50 µM |
| --- | --- |
| [O-][S+](Cc1ccc(Cl)cc1Br)c1cccc(CNCC2CCNC2)c1 (centres unmarked) [Example 137, 1-[3-[(2-bromo-4-chloro-phenyl)methylsulfinyl]phenyl]-N-(pyrrolidin-3-ylmethyl)methanamine] | ≤ 50% |
| O=S(=O)(Cc1ccc(Cl)cc1Br)c1ccc(CNCC2CNC2)cc1 [Example 138] | ≤ 50% |
| Ic1ccccc1COc1cccc(CNCC2CNC2)c1 [Example 195] | ≤ 50% |
